Activity calls are given as the source filed them. No cut-off for these calls is given here.
Key:
[1] = biological target: Beta-1 adrenergic receptor (Homo sapiens, UniProt P08588)
Description: Agonist activity at human recombinant beta-1 adrenergic receptor expressed in CHO cells assessed as induction of intracellular cAMP accumulation after 30 to 45 mins

[2] = biological target: Beta-3 adrenergic receptor (Homo sapiens, UniProt P13945)
Description: Agonist activity at human recombinant beta3 adrenergic receptor expressed in CHO cells assessed as induction of intracellular cAMP accumulation after 30 to 45 mins

[3] = biological target: Beta-2 adrenergic receptor (Homo sapiens, UniProt P07550)
Description: Agonist activity at human recombinant beta2 adrenergic receptor expressed in CHO cells assessed as induction of intracellular cAMP accumulation after 30 to 45 mins

[4] = Bronchodialatory activity against electrically-stimulated contraction in guinea pig trachea assessed as time taken for inducing 50% maximum relaxant effect
Cavia porcellus [5] = species on record: Cavia porcellus; assay: Bronchodialatory activity against electrically-stimulated contraction in guinea pig trachea assessed as inhibition of recovery of contractile effect measured after 1 hr of drug washout; assay type: functional, tissue-based
Cavia porcellus [6] = species on record: Cavia porcellus; assay: Bronchodialatory activity against electrically-stimulated contraction in guinea pig trachea assessed as inhibition of recovery of contractile effect measured after 3 hrs of drug washout; assay type: functional, tissue-based
[7] = Solubility at pH 7.4; assay type: physicochemical; conditions: buffer
[8] = Plasma clearance in Han Wistar rat at 0.25 mg/kg, iv after 8 hrs by LC/MS/MS analysis; assay type: ADME, organism-based; design: dose 0.25 mg/kg, route intravenous
[9] = Volume of distribution at steady state in Han Wistar rat at 0.25 mg/kg, iv after 8 hrs by LC/MS/MS analysis; assay type: ADME, organism-based; design: dose 0.25 mg/kg, route intravenous; conditions: in vivo, read-out: Vdss
[10] = Half life in Han Wistar rat at 0.25 mg/kg, iv by LC/MS/MS analysis; assay type: ADME, organism-based; design: dose 0.25 mg/kg, route intravenous; conditions: in vivo
[11] = Cmax in Han Wistar rat at 2 mg/kg, po after 8 hrs by LC/MS/MS analysis; assay type: ADME, organism-based; design: dose 2 mg/kg, route oral; conditions: in vivo
[12] = Oral bioavailability in Han Wistar rat at 2 mg/kg after 8 hrs by LC/MS/MS analysis; assay type: ADME, organism-based; conditions: in vivo
Cavia porcellus [13] = assay: Ex vivo bronchodilatory activity in guinea pig assessed as protection against histamine-induced bronchospasm administered via nebulizer; assay type: functional
Cavia porcellus [14] = assay: Ex vivo bronchodilatory activity against histamine-induced bronchospasm in guinea pig assessed as time taken for 50% recovery of bronchospasm at 10-fold EC90 administered via nebulizer; assay type: functional
[15] = Oral bioavailability in rat; assay type: ADME, organism-based; conditions: in vivo
Cavia porcellus [16] = assay: Ex vivo bronchodilatory activity against histamine-induced bronchospasm in guinea pig assessed as time taken for 50% recovery of bronchospasm at EC90 administered via nebulizer; assay type: functional

Chain of Beta-1 adrenergic receptor (P08588 whole entry): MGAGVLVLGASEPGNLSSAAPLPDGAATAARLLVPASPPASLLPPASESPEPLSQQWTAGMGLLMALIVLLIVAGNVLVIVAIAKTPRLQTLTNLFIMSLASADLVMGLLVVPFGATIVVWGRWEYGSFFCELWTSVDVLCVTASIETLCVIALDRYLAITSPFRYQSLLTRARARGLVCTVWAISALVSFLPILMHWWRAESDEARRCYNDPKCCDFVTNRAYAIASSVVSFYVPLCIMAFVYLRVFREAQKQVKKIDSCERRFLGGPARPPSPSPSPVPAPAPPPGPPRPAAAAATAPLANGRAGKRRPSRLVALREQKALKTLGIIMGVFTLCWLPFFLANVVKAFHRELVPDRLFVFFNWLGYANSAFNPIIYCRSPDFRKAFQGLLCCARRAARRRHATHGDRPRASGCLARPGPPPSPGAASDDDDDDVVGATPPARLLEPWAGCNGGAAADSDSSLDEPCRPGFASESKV
Chain of Beta-2 adrenergic receptor (P07550 whole entry): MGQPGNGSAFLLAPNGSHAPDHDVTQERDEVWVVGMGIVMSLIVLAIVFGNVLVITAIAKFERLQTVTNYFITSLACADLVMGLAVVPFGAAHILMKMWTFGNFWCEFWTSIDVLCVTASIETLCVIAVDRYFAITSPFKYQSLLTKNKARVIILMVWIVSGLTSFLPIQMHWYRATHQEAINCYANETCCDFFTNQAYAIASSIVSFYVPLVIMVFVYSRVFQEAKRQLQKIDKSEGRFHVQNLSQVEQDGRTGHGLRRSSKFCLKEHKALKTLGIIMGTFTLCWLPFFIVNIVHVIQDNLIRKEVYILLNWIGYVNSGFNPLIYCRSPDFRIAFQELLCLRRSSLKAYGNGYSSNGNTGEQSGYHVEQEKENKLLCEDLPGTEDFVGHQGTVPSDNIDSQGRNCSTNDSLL
Chain of Beta-3 adrenergic receptor (P13945 whole entry): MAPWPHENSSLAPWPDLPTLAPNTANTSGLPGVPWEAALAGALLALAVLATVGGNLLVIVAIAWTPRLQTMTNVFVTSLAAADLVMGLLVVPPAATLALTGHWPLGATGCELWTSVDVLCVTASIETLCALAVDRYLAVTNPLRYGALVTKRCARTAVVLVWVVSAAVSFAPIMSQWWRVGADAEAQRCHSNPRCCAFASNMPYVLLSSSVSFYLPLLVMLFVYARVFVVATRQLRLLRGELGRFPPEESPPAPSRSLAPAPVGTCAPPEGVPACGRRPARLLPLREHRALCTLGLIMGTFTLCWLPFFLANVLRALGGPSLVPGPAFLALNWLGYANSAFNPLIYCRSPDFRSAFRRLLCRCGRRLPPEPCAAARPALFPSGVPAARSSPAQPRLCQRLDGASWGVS

Row | Compound | EC50 [1] | EC50 [2] | EC50 [3] | other results
1 | Cc1ccc(COCCOCCCCCCNC[C@H](O)c2ccc(O)c(CO)c2)cc1 |  |  | 2.51 nM | 
2 | CC(=O)O.OCc1cc([C@@H](O)CNCCCCCCOCCOCc2cccc3ccccc23)ccc1O | 12.6 nM | 5.01 nM | 0.126 nM | Time [4]: 10.2 min; Activity (Cavia porcellus [5]): Active; Activity (Cavia porcellus [6]): Active
3 | NS(=O)(=O)c1ccc(COCCOCCCCCCNC[C@H](O)c2ccc(O)c(CO)c2)cc1 | 100 nM | 398 nM | 2 nM | 
4 | CC(=O)O.OCc1cc([C@@H](O)CNCCCCCCOCCOCc2ccccc2)ccc1O | 31.6 nM | 39.8 nM | 2.51 nM | Time [4]: 4.8 min; Activity (Cavia porcellus [6]): Active
5 | OCCOCCCCCCNC[C@H](O)c1ccc(O)c(CO)c1 |  | 12600 nM |  | 
6 | O=C(O)/C(=C/c1ccccc1)c1ccccc1.OCc1cc([C@@H](O)CNCCCCCCOCCOCc2c(Cl)cccc2Cl)ccc1O [VILANTEROL .ALPHA.-PHENYL CINNAMATE] |  |  |  | solubility [7]: 190 µg/mL
7 | NS(=O)(=O)c1cccc(COCCOCCCCCCNC[C@H](O)c2ccc(O)c(CO)c2)c1 | 50.1 nM | 126 nM | 1.58 nM | 
8 | O=C(O)C(c1ccccc1)(c1ccccc1)c1ccccc1.OCc1cc([C@@H](O)CNCCCCCCOCCOCc2c(Cl)cccc2Cl)ccc1O [VILANTEROL TRIFENATATE] |  |  |  | solubility [7]: 33 µg/mL
9 | OCc1cc([C@@H](O)CNCCCCCCOCCOCc2c(Cl)cccc2Cl)ccc1O |  |  |  | Activity (Cavia porcellus [5]): Active; Activity (Cavia porcellus [6]): Active
10 | CC(=O)O.OCc1cc([C@@H](O)CNCCCCCCOCCOCc2c(Cl)cccc2Cl)ccc1O [VILANTEROL ACETATE] |  | 794 nM |  | Time [4]: 6.6 min; clearance [8]: 123 mL/min/kg; Vd [9]: 4.4 L/kg; half-life [10]: 48 min; Cmax [11]: < 2 ng/mL; bioavailability [12]: < 5%; EC90 (Cavia porcellus [13]): 30000 nM; Time (Cavia porcellus [14]): 17 h
11 | CS(=O)(=O)Nc1cccc(COCCOCCCCCCNC[C@H](O)c2ccc(O)c(CO)c2)c1 | 12.6 nM | 79.4 nM | 0.251 nM | 
12 | CC(=O)O.Cc1cc(C)cc(COCCOCCCCCCNC[C@H](O)c2ccc(O)c(CO)c2)c1 | 7.94 nM | 5.01 nM |  | Time [4]: 6.9 min; Activity (Cavia porcellus [5]): Active
13 | NC(=O)Nc1cccc(COCCOCCCCCCNC[C@H](O)c2ccc(O)c(CO)c2)c1 | 20 nM | 316 nM | 1.58 nM | 
14 | OCc1cc(C(O)CNCCCCCCOCCCCc2ccccc2)ccc1O (stereo not given) [SALMETEROL] |  |  |  | Activity (Cavia porcellus [5]): Active; Activity (Cavia porcellus [6]): Active; bioavailability [15]: 10%; EC90 (Cavia porcellus [13]): 50000 nM; Time (Cavia porcellus [16]): 10 h

Further lines, with some results ahead:

Row | EC50 [1] | EC50 [2] | EC50 [3] | Compound | other results
15 | 12.6 nM | 7.94 nM |  | OCc1cc([C@@H](O)CNCCCCCCOCCOCc2cc(Cl)ccc2Cl)ccc1O | 
16 | 20 nM | 31.6 nM |  | OCc1cc([C@@H](O)CNCCCCCCOCCOCc2cccc(O)c2)ccc1O | 
17 |  |  | 2.51 nM | OCc1cc([C@@H](O)CNCCCCCCOCCOCc2ccc(Cl)cc2)ccc1O | 
18 | 79.4 nM | 63.1 nM | 7.94 nM | OCc1cc([C@@H](O)CNCCCCCCOCCOCc2ccc(O)cc2)ccc1O | 
